Measurements from patent publication US8557225B2, “Solution and method for cleaning tooth enamel” (priority 2008, dated 2013).

Experiments:
[1] = citric acid solution applied over the enamel; format: in vivo; details: 6% citric acid in the improved solution, over the teeth enamel
Description: Citric acid as incorporated in the present disclosure is an irrigating substance classified as a chelating agent which, due to its low pH, reacts with the metallic ions in the hydroxyapatite crystals in order to produce a metallic chelating agent which reacts with the chelating agent's terminal groups when removing calcium ions of the dentine, forming a ring. The dentine softens changing the solubility and permeability aspects of the tissue, especially the peritubular dentine, rich in hydroxyapatite, increasing the diameter of the exposed dental tubes. These chelating agent properties also provide a great affinity as thus used due to ferrous alkali characteristics of the dental structure. Also, this chelating agent is naturally found inside the body, thus making it biologically more acceptable than other acids. Citric acid is effective in altering the hydroxyapatite solubility; it has been used in several concentrations, from 0.6 up to 50% by weight. Its effect is very fast and it only requires five seconds to apply a 6% solution over the enamel to remove the undesired dental covering.
This action is favorably strengthened when citric acid (C6O7H8) is included in the composition at the approximate 6% (weight percent) level. (Tables 1 and 2). […]

[2] = 6% solution applied over the enamel; cited from earlier work

**Q.** Which “time required after applying for dissolving the organic matter” value [1] does the source give for `O=C(O)CC(O)(CC(=O)O)C(=O)O` [Citric acid, citric acid] here?
**A.** thirty seconds

**Q.** And the “time required to remove the undesired dental covering” value [2]?
**A.** five seconds
